Patent US20240180138A1, “Heating Transpiration Composition, and Method for Exterminating Harmful Arthropods Using Same” (SUMITOMO CHEMICAL COMPANY, LIMITED, priority 2021, published 2024)

Columns and labels:
Assay type in all cases: in vivo
[1] = test system: Common house mosquito (Culex pipiens pallens) female adult insects; assay: Test Example 2: knockdown by burning insect repellent incense in metallic cylinder, 7 minutes; conditions: B alone
Description: (§1) Wood powder 75 parts by weight, tab powder 5 parts by weight, lees powder 5 parts by weight, siam powder 10 parts by weight, and tapioca starch powder 5 parts by weight were mixed, and appropriate amount of water was added thereto and the resulting mixture was kneaded thoroughly. The kneaded mixture was molded to a sheet shape, and punched out to a spiral shape, and thereafter, the resulting mixture was dried to make an approximate degree of 7 to 10% by weight of moisture contents to prepare the blank insect repellent incense.
(§2) The acetone solution of the testing compounds that were diluted to make the prescribed concentrations were applied dropwise uniformly to the obtained blank insect repellent incense, and then air-dried to prepare the test formulation.
Common house mosquito (Culex pipiens pallens) female adult insects 20 were placed in the glass tube with 4.5 cm of a diameter and 12 cm of a height, and they were shut in the glass tube by covering the opening parts of the top and the bottom thereof with a nylon net having 16 mesh by a rubber band. A metallic cylinder with 22 cm of a diameter and 83 cm of the height was installed and set up, and two (2) of the above glass tube in which common house mosquito (Culex pipiens pallens) were placed were installed in the upper opening part and then fixed. The formulation that was prepared according to the above process was set to fire, and set up in the bottom opening part of the metallic cylinder. Seven (7) minutes later, the number of knockdowned (hereinafter, abbreviated as “KD”) individuals were recorded. The experiments were conducted in triple replicates to calculate the KD ratio.

[2] = test system: Common house mosquito (Culex pipiens pallens) female adult insects; assay: Test Example 3: knockdown by burning insect repellent incense in metallic cylinder, 10 minutes; conditions: B alone
Description: as §1, §2
Common house mosquito (Culex pipiens pallens) female adult insects 20 were placed in the glass tube with 4.5 cm of a diameter and 12 cm of a height, and they were shut in the glass tube by covering the opening parts of the top and the bottom thereof with a nylon net having 16 mesh by a rubber band. […] Ten (10) minutes later, the number of knockdowned (hereinafter, abbreviated as “KD”) individuals were recorded. […]

[3] = target: Common house mosquito (Culex pipiens pallens) female adult insects; assay: Test Example 1: knockdown by burning insect repellent incense in metallic cylinder, 6 minutes; conditions: B alone, 0.01% in incense
Description: as §1, §2
Common house mosquito (Culex pipiens pallens) female adult insects 20 were placed in the glass tube with 4.5 cm of a diameter and 12 cm of a height, and they were shut in the glass tube by covering the opening parts of the top and the bottom thereof with a nylon net having 16 mesh by a rubber band. […] Six (6) minutes later, the number of individuals of knockdowned common house mosquito (Culex pipiens pallens) were recorded. […]

## CC1(C)[C@H](C=C(Cl)Cl)[C@H]1C(=O)OCc1c(F)c(F)cc(F)c1F [Transfluthrin, transfluthrin]
[1]; 0.005%
  KD ratio when used alone: KD ratio 5.0%
[1]; 0.01%
  KD ratio when used alone: KD ratio 10.0%
[2]; 0.01%
  KD ratio when used alone: KD ratio 81.7%

## COCc1c(F)c(F)c(COC(=O)C2C(C=C(C)C)C2(C)C)c(F)c1F (centres unmarked) [Dimefluthrin, dimefluthrin]
[1]; 0.005%
  KD ratio when used alone: KD ratio 2.7%
[1]; 0.01%
  KD ratio when used alone: KD ratio 68.3%
[2]; 0.005%
  KD ratio when used alone: KD ratio 45.0%

## C/C=C/C1C(C(=O)OCc2c(F)c(F)c(COC)c(F)c2F)C1(C)C (centres unmarked) [Metofluthrin, metofluthrin]
[1]; 0.01%
  KD ratio when used alone: KD ratio 75.0%
[3]
  KD ratio when used alone: KD ratio 30.0%
